# ChEMBL document CHEMBL5252651, “Discovery of Bioactive Metabolites by Acidic Stress to a Geldanamycin Producer, Streptomyces samsunensis” (J Nat Prod, 2023)
# The source made the active and inactive calls. The calls are words filed in the database; no cut-off is given here.
# Test system: Staphylococcus aureus
# Test: Antivirulence activity against methicillin-resistant Staphylococcus aureus USA300 LAC assessed as change in Hla transcriptional level at 10 ug/ml incubated for 8 to 16 hrs by qRT-PCR analysis
# Assay type: functional, organism-based
# Settings: dose 10.0 µg/ml, time 8-16 hrs
row,SMILES,Activity
1,CO[C@H]1/C=C\C=C(/C)C(=O)NC2=CC(=O)C(O)=C(C[C@@H](C)C[C@H](OC)[C@H](O)[C@@H](C)/C=C(\C)[C@@H]1OC(N)=O)C2=O,inactive
2,COC1=C2C[C@@H](C)C[C@H](OC)[C@H](O)[C@@H](C)/C=C(\C)[C@H](OC(N)=O)[C@@H](OC)/C=C\C=C(/C)C(=O)NC(=CC1=O)C2=O,inactive
3,CO[C@@H](C[C@H](C)Cc1cc(O)cc(NC(C)=O)c1)[C@H](O)[C@H](C)C(=O)O,inactive
